We go through two compounds from patent US12534501B2, “Targeting deregulated Wnt signaling in cancer using stabilized alpha-helices of BCL-9” (Dana-Farber Cancer Institute, Inc., priority 2011, dated 2026).

Data set [1] deals with NFκB luciferase reporter in Colo320 cells. Briefly: NFκB reporter gene transcriptional assay. The class given is cell-based. The conditions noted are these: selectivity control. Here is the method:
Luciferase activity was measured using the Dual Luciferase Reporter Assay System (Promega) as previously described (Sukhdeo, K. et al. Proc Natl Acad Sci USA 104, 7516-21 (2007)). To measure Wnt or NFκB reporter activity, Colo320 cells were transfected with TOP-FLASH, FOP-FLASH plasmid (Millipore Corporation) or NFκB luciferase reporter (Stratagene), along with an internal Renilla control plasmid (hRL-null). Transfection was accomplished using FuGENE (Roche) according to the manufacturer's protocol. The results were normalized to control Renilla activity. The reported data represent the average of three independent transfection experiments performed in triplicate. See results in FIG. 9, FIG. 10.
(A reporter such as luciferase makes a cellular process visible.)

Data set [2] concerns β-catenin/BCL9-driven transcription in HCT116 cells. In words: TOP-FLASH dual luciferase assay with pcDNA-BCL9 transfection. The class given is cell-based. The conditions noted are these: HCT116, TOP-FLASH and pcDNA-BCL9, peptides 5 μM, 24 h.
Data set [3] relates to Wnt target genes in Colo320 cells. Briefly: qPCR of Wnt/β-catenin target genes. It counts as cell-based. Here is the method: RNA was extracted with TRIzol Reagent (Invitrogen) according to the manufacturer's protocol. Total RNA (2 μg) was reverse transcribed (SuperScript VILO cDNA synthesis kit, Invitrogen) and qPCR was performed using an Applied Biosynthesis 7500 Real-time PCR system. Analysis of target genes was conducted in quadruplicate using POWER SYBR Green Master Mix (Applied Biosystems) with previously described primer sets. Transcripts levels were normalized to β-actin expression. These experiments were repeated three times. See results in FIG. 2B, FIG. 2C.
To measure the effects of vehicle, SAH-BCL9B, and SAH-BCL9MUT on the expression of Wnt/β-catenin target genes, including VEGF, in Colo320 (FIG. 18) and MM1S (FIG. 19) cell lines, quantitative PCR (qRT-PCR) analysis was performed. RNA was extracted with TRIzol Reagent (Invitrogen) according to the manufacturer's protocol. Total RNA (2 μg) was reverse transcribed (SuperScript VILO cDNA synthesis kit, Invitrogen) and qPCR was performed using an Applied Biosynthesis 7500 Real-time PCR system. PCR primers were designed as below: […]
Analysis of target genes was conducted in quadruplicate using POWER SYBR Green Master Mix (Applied Biosystems) as previously described (M. Mani et al., Cancer Res 69, 7577 (2009)). Transcripts levels were normalized to β-actin expression. These experiments were repeated three times.
Background: Quantitative PCR measures a nucleic acid by following its amplification.

Data set [4] has as its system INA-6 multiple myeloma cells. Briefly: Cell proliferation, thymidine incorporation. The conditions noted are these: 5 μM, 24 h, vs vehicle and SAH-BCL9B(R359E). The class given is cell-based. Here is the method: (§1) Cell proliferation assays were performed as described (Sukhdeo, K. et al. Proc Natl Acad Sci USA 104, 7516-21 (2007)). Cell viability was measured using the CellTiter-Glo assay (Promega) according to the manufacturer's instructions. Apoptosis was evaluated by activated caspase-3 and PARP western blotting. See results in FIG. 3A-FIG. 3F, FIG. 13, and FIG. 20.
(In general: Uptake of a labelled nucleoside into DNA is a usual measure of proliferation.)

For data set [5], the system named is CRC cell lines expressing BCL9. In words: Cell proliferation of cultured colon cancer cells. The class given is cell-based. Here is the method:
as §1

Data set [6] has as its system HCT116, HCT116DO20 and HCT116KO58 cells. In words: Cell proliferation of cultured colon cancer cells. It counts as cell-based. Conditions: HCT116 and derivatives, not dependent on Wnt/β-catenin activity. Here is the method: as §1
Another data set concerns LS174T cell line. Briefly: Cell proliferation of cultured colon cancer cells. It counts as cell-based. Conditions: does not express BCL9. Here is the method:
as §1

Data set [7] concerns Colo320 cells. Briefly: Cell viability, CellTiter-Glo. It counts as cell-based. Conditions: 72 h, 5 μM. Here is the method:
as §1

In a further data set the test system is MM1S cells. In words: Cell viability, CellTiter-Glo. It counts as cell-based. The conditions noted are these: 72 h, 5 μM. Here is the method:
as §1

For a further data set, the system named is caspase-3 or PARP. In words: Apoptosis by activated caspase-3 and PARP western blotting. The class given is cell-based. The conditions noted are these: western analysis. Here is the method:
as §1

For data set [8], the system named is VEGF secretion by Colo320 cells. In words: VEGF ELISA. It counts as cell-based. Conditions: 5 μM, 24 h. Here is the method:
(§2) VEGF ELISA was performed as previously described (Mani, M. et al. Cancer Res 69, 7577-86 (2009)). Briefly, cells (1×10^6) were treated with vehicle and SAH-BCL9 peptides (5 μM) for 24 h. VEGF levels in the supernatant were then measured according to the manufacturer's ELISA protocol (DuoSet, R&D Systems).

The test system of data set [9] is VEGF secretion by MM1S cells. Briefly: VEGF ELISA. The conditions noted are these: 5 μM, 24 h. The class given is cell-based. Here is the method: as §2
The test system of the next data set is HUVEC. Briefly: In vitro angiogenesis assay (capillary tube formation). The conditions noted are these: HUVEC with supernatants of Colo320 or MM1S cells treated at 5 μM for 24 h; read at 5 h. The class given is cell-based, human. Here is the method: Angiogenesis was evaluated as previously described (Mani, M. et al. Cancer Res 69, 7577-86 (2009)) using an in vitro angiogenesis assay kit (Millipore). For capillary tube formation analysis, HUVEC were cultured on polymerized matrix gel and exposed to supernatant media collected from Colo320 or MM1S cells treated with vehicle (0.5% DMSO), SAH-BCL9B peptides (5 μM) for 24 h. The number of capillary tubes formed after 5 h treatment at 37° C. was determined by counting 5 randomly selected fields at 40× magnification, according to manufacture's instructions. HUVEC cultured in VEGF media and VEGF-free media were used as positive and negative controls, respectively. Cellular invasion assays were performed using Matrigel Boyden chambers (BD Biosciences) as described (Mani, M. et al. Cancer Res 69, 7577-86 (2009)). The reported data represent the average of three independent experiments performed in triplicate. See results in FIG. 3H-FIG. 3I.

For data set [10], the system named is Colo320 cells. Briefly: Cellular uptake of FITC-labelled peptides. The class given is cell-based. Conditions: FITC derivatives. Here is the method:
For fluorescence microscopy evaluation, cells were prepared using a cytocentrifuge (Thermo Shandon) and fixed as previously described (Sukhdeo, K. et al. Proc Natl Acad Sci USA 104, 7516-21 (2007); Mani, M. et al. Cancer Res 69, 7577-86 (2009)). Anti-β-catenin and rhodamine-conjugated secondary antibodies (5 μg/ml; Southern Biotechnology) were employed. Images were obtained using a BioRad Radiance 2000 laser scanning confocal microscope. Cell permeability of SAH-BCL9B and SAH-BCL9B(R359E) were determined by fluorescence microscopy of cells treated with FITC-derivatives of the above described stapled peptides and also by blotting/fluorescence scan, performed as previously described (Pitter, K. et al Methods Enzymol, 446, (2008), 387-408; Walensky, L. D. et al. Science 305, 1466-70 (2004). See results in FIG. 1E, FIG. 7.

Numbered stars: 1 amine (or outer) side, 2 acyl side, 3 side chain; on linkers, the order of the positions; unused ones are H or OH. Bridge positions count the residues as written; N and C are the ends. Square brackets hold non-standard residues; d marks the D form. Peptide text beside a SMILES is read from it. ξ: configuration not given here. ξαMeNle(6-ylidene) = CC(CCCC=[*:3])(N[*:1])C(=O)[*:2]; Nle = CCCC[C@H](N)C(=O)O

In the case of `CCCC[C@H](NC(=O)[C@H](CCCNC(=N)N)NC(=O)[C@H](CCC(N)=O)NC(=O)[C@@H](NC(=O)C1(C)CCCC=CCCCC(C)(NC(=O)[C@H](CC(C)C)NC(=O)[C@H](CO)NC(=O)[C@H](CCCNC(=N)N)NC(=O)[C@H](CCC(=O)O)NC(=O)[C@H](CCCNC(=N)N)NC(=O)[C@H](Cc2c[nH]cn2)NC(=O)[C@H](CCC(=O)O)NC(=O)[C@H](CC(C)C)NC(=O)[C@H](CCC(N)=O)NC(=O)[C@H](CCC(=O)O)NC(=O)[C@H](CCC(N)=O)NC(=O)[C@H](CO)NC(=O)[C@H](CC(C)C)NC(C)=O)C(=O)N[C@@H]([C@@H](C)O)C(=O)N[C@@H](CC(C)C)C(=O)N[C@@H](CCCNC(=N)N)C(=O)N1)[C@@H](C)CC)C(=O)N[C@@H](CC(C)C)C(=O)N[C@@H](Cc1ccccc1)C(N)=O` (stereo partly shown) [SAH-BCL9B] (Ac-LSQEQLEHRERSL[ξαMeNle(6-ylidene)]TLR[ξαMeNle(6-ylidene)]IQR[Nle]LF-NH2; staple 14-18), in data set [1], the “effect on NFκB reporter activity” value is “no effect”. Moreover, the “suppression of reporter activity on increasing BCL9 expression” value in data set [2] is “dose-responsively reversed”. Further, the “mRNA levels of VEGF, c-Myc, and Axin2” value in data set [3] (qPCR) is listed as “significantly reduced”. Further, the “Actin expression (non-Wnt pathway target gene)” value in data set [3] (qRT-PCR, Colo320) is “no change”. Also, in data set [3] (qRT-PCR, Colo320 (FIG. 18A), normalized to β-actin), the “mRNA levels of VEGF, c-MYC, LGR5, LEF1, and AXIN2” value is given as “dose-responsively reduced”. The “growth by thymidine incorporation” value in data set [4] is listed as “significantly reduced growth”. Also, the values for the proliferation entry (in [5]; in data set [6]; with LS174T cell line) were “significantly reduced the proliferation”, “no sensitivity” and “no response”, respectively. Further, the viability result with Colo320 cells [7] and in the data set with MM1S cells was “no effect” throughout. Further, the “caspase-3 or PARP activation” value in the data set on caspase-3 or PARP is listed as “did not activate caspase-3 or PARP”. For the same compound, the VEGF secretion entry in [8] and in data set [9] was “decreased VEGF secretion” each time. In addition, the capillary tube formation result in the data set with HUVEC is given as “reduced capillary tube formation”.

“SAH-BCL9B(R359E): SEQ ID NO: 7: LSQEQLEHEERSLXTLRXIQRBLF; reverse polarity point mutant, negative control of SAH-BCL9B”: the cellular uptake entry in the data set on Colo320 cells [10] is “similar”.
